Where a SMILES comes first, the peptide text is derived from it. The star is where a group is joined. Cbz = O=C(OCc1ccccc1)*

Experimental findings from publication PMC9204298, “Inhibiting UCH-L5: Rational Design of a Cyclic Ubiquitin-Based Peptide Inhibitor” (Frontiers in Molecular Biosciences, 2022) are described below.

This test deals with MCF7 cells, level of ubiquitinated substrates. Description: Western blot of ubiquitinated substrates in MCF7 cells. The class given is cell-based. Particulars: control, n = 3, Figures 7A,B.

Method: DMSO was used as vehicle control. Following the end of the incubation times, MCF7 cells were harvested using 3X NuPAGE SDS Sample buffer (Invitrogen, Cat# NP0007) containing β-mercaptoethanol and 1x DNAse and sonicated in Bioruptor Pico sonicator (Diagenode) (10-sec pulse on, 10 s pulse off for 10 cycles). After boiling them at 95°C for 10 min, the samples run on 4–12% SDS-PAGE agarose gel using MOPS buffer. Proteins were transferred to the nitrocellulose membrane. Ubiquitinated substrates were detected using a mouse anti-ubiquitin (P4D1) antibody (Santa Cruz, Cat# sc-8017). Mouse anti-β-actin (Sigma-Aldrich, Cat# A5441, in 1:10000 dilution) was used to detect actin as a loading control. 800CW goat anti-mouse IgG (H + L) (Li-COR, Cat# 926–32210, 1:5000) were used as secondary antibodies. The signal was detected using direct imaging by Odyssey® CLx Infrared Imaging System (LI-COR). The experiment was repeated in triplicates. The total amount of ubiquitinated substrates and the actin level was quantified using Licor Image studio densitometry software, and the total level of ubiquitinated substrates was normalized to the actin level.

Consider `CC(C)C[C@@H](C=O)NC(=O)[C@H](CC(C)C)NC(=O)[C@H](CC(C)C)NC(=O)OCc1ccccc1` [MG132] (Cbz-Leu-Leu-Leu-aldehyde), for which the “level of ubiquitinated substrates” value (MG132 5 µM, 4 h) was “increased the level of ubiquitinated substrates”.
With `C=CC(=O)N1C/C(=C\c2ccc([N+](=O)[O-])cc2)C(=O)/C(=C/c2ccc([N+](=O)[O-])cc2)C1` [bAP15], the “level of ubiquitinated substrates” value (bAP15 1 µM, 3 h) is “increased the level of ubiquitinated substrates”.
